Class data for 36 compounds are collected here from patent US20050197350A1, “Novel quinoline, tetrahydroquinazoline, and pyrimidine derivatives and methods of treatment related to the use thereof” (TAISHO PHARMACEUTICAL CO., LTD., priority 2003, published 2005).

The assay relates to MCH receptors. Briefly: MCH receptor activity class (method not given).
[1] abbreviates: class by percent of control at 10^−7 M or IC50.
The mark [2] stands for this setting: MCH receptor, class by percent of control at 10^-7 M or IC50.
The mark [3] stands for this setting: class by percent of control at 10^-7 M or IC50.
Setting [4] is: activity class 1-3: percent of control at 10^-7 M or IC50.
Where [5] appears, read: MCH receptor activity class 1-3 (percent of control at 10^-7 M or IC50).

Regarding `Cc1cnc(N[C@H]2CC[C@@H](CNC(=O)c3ccc(F)c(Cl)c3)CC2)nc1N(C)C` [compound 2704], the class under setting [1] is listed as 1 (Class 1: The value of percent of control at 10^−7 M was less than 40% or the value of IC50 was less than 50 nM.).

In the case of `CN(C)c1cc(N[C@H]2CC[C@@H](NC(=O)C3(c4ccc(Cl)cc4)CCCC3)CC2)nc2ccccc12` [compound 99], the class under setting [2] was 2 (Class 2: The value of percent of control at 10^−7 M was from 40% to 60% or the value of IC′50 was from 50 nM to 200 nM.).

In the case of `CN(C)c1cc(N[C@H]2CC[C@@H](NC(=O)c3ccc(OC(F)(F)F)c(Cl)c3)CC2)nc2ccccc12` [compound 144], under setting [2], the class is recorded as 3 (Class 3 The value of percent of control at 10^−7 M was more than 60% or the value of IC50 was more than 200 nM.).

As for `COC(=O)c1ccccc1Sc1nc2sccn2c1CN[C@H]1CC[C@@H](Nc2nc3c(c(N(C)C)n2)CCCC3)CC1` [compound 1358], the class under setting [3] is 3 (Class 3 The value of percent of control at 10^−7 M was more than 60% or the value of IC50 was more than 200 nM.). Still for that read-out and setting: then `Cc1cc(C(=O)NC[C@H]2CC[C@@H](Nc3nc4c(c(N(C)C)n3)CCCC4)CC2)ccc1F` [compound 643], with 2 (Class 2: The value of percent of control at 10^−7 M was from 40% to 60% or the value of IC′50 was from 50 nM to 200 nM.).

As for `CN(C)c1nc(N[C@H]2CC[C@@H](NC(=O)Nc3cccc(C(F)(F)F)c3)CC2)nc2c1CCCC2` [compound 1838], the class under setting [3] is on record as 3 (Class 3 The value of percent of control at 10^−7 M was more than 60% or the value of IC50 was more than 200 nM.). The same measure, in the same setting: with `COc1ccc(NC(=O)N[C@H]2CC[C@@H](Nc3nc4c(c(N(C)C)n3)CCCC4)CC2)c(C)c1` [compound 1726] the figure was 2 (Class 2: The value of percent of control at 10^−7 M was from 40% to 60% or the value of IC′50 was from 50 nM to 200 nM.); with `CC(C)c1ccccc1NC(=S)N[C@H]1CC[C@@H](Nc2nc3c(c(N(C)C)n2)CCCC3)CC1` [compound 1761], 3 (Class 3 The value of percent of control at 10^−7 M was more than 60% or the value of IC50 was more than 200 nM.); with `Cc1cc(C(=O)N[C@H]2CC[C@@H](Nc3nccc(N(C)C)n3)CC2)nn1C(C)(C)C` [compound 308], 3 (Class 3 The value of percent of control at 10^−7 M was more than 60% or the value of IC50 was more than 200 nM.). On the same count and under the same terms, then `CN(C)c1nc(N[C@H]2CC[C@@H](NC(=O)Nc3ccccc3OC(F)F)CC2)nc2c1CCCC2` [compound 1843], with 3 (Class 3 The value of percent of control at 10^−7 M was more than 60% or the value of IC50 was more than 200 nM.). Regarding `CC(C)[C@@H]1CC[C@@H](C)C[C@H]1OC(=O)N[C@H]1CC[C@@H](Nc2cc(N(C)C)c3ccccc3n2)CC1` [compound 1553], the class under setting [4] is recorded as 3 (Class 3 The value of percent of control at 10^−7 M was more than 60% or the value of IC50 was more than 200 nM.).

In the case of `CCCc1ccccc1NC(=O)NC[C@H]1CC[C@@H](Nc2nc3c(c(N(C)C)n2)CCCC3)CC1` [compound 2474], the class under setting [5] is reported as 3 (Class 3 The value of percent of control at 10^−7 M was more than 60% or the value of IC50 was more than 200 nM.). For `CN(C)c1nc(N[C@H]2CC[C@@H](NC(=O)c3cc(F)cc(C(F)(F)F)c3)CC2)nc2c1CCCC2` [compound 474], where the note is “class 1-3 by percent of control at 10^-7 M or IC50”, the class is on record as 1 (Class 1: The value of percent of control at 10^−7 M was less than 40% or the value of IC50 was less than 50 nM.). Regarding `Cc1ccc(C(=O)NC[C@H]2CC[C@@H](Nc3nc4c(c(N(C)C)n3)CCCC4)CC2)cc1` [compound 613], the class under setting [3] is given as 3 (Class 3 The value of percent of control at 10^−7 M was more than 60% or the value of IC50 was more than 200 nM.). The same measure, in the same setting: with `CN(C)c1ccnc(N[C@H]2CC[C@@H](NC(=S)Nc3cccc4ccccc34)CC2)n1` [compound 2264] the figure was 3 (Class 3 The value of percent of control at 10^−7 M was more than 60% or the value of IC50 was more than 200 nM.); with `C[C@H](C(=O)N[C@H]1CC[C@@H](Nc2cc(N(C)C)c3ccccc3n2)CC1)c1ccc(-c2ccccc2)c(F)c1` [compound 740], 3 (Class 3 The value of percent of control at 10^−7 M was more than 60% or the value of IC50 was more than 200 nM.). As to `COC(=O)c1scc(C)c1NC(=S)N[C@H]1CC[C@@H](Nc2nccc(N(C)C)n2)CC1` [compound 2356], under setting [5], the class is listed as 3 (Class 3 The value of percent of control at 10^−7 M was more than 60% or the value of IC50 was more than 200 nM.). `CCCNC(=O)N[C@H]1CC[C@@H](Nc2nc3c(c(N(C)C)n2)CCCC3)CC1` [compound 1837]: the class under setting [3] was 3 (Class 3 The value of percent of control at 10^−7 M was more than 60% or the value of IC50 was more than 200 nM.). Consider `COc1cc(CNC[C@H]2CC[C@@H](Nc3cc(N(C)C)c4ccccc4n3)CC2)cc2c1OCO2` [compound 1188], for which, under setting [3], the class is recorded as 2 (Class 2: The value of percent of control at 10^−7 M was from 40% to 60% or the value of IC′50 was from 50 nM to 200 nM.). Regarding `CCn1c2ccccc2c2cc(CNC[C@H]3CC[C@@H](Nc4cc(N(C)C)c5ccccc5n4)CC3)ccc21` [compound 1152], the class (activity class per percent of control at 10^-7 M or IC50) is reported as 3 (Class 3 The value of percent of control at 10^−7 M was more than 60% or the value of IC50 was more than 200 nM.). Consider `CN(C)c1nc(N[C@H]2CC[C@@H](NC(=O)Nc3ccc(C(C)(C)C)cc3)CC2)nc2c1CCCC2` [compound 1918], for which the class under setting [2] is listed as 3 (Class 3 The value of percent of control at 10^−7 M was more than 60% or the value of IC50 was more than 200 nM.). As for `Cc1ccc([N+](=O)[O-])cc1NC(=O)N[C@H]1CC[C@@H](Nc2nccc(N(C)C)n2)CC1` [compound 2235], the class under setting [3] is 3 (Class 3 The value of percent of control at 10^−7 M was more than 60% or the value of IC50 was more than 200 nM.). On the same count and under the same terms, then `CCOc1c(Br)cc(Br)cc1CNC[C@H]1CC[C@@H](Nc2nccc(N(C)C)n2)CC1` [compound 1325], with 2 (Class 2: The value of percent of control at 10^−7 M was from 40% to 60% or the value of IC′50 was from 50 nM to 200 nM.).

Take `CN(C)c1cc(N[C@H]2CC[C@@H](NC(=O)Cc3ccc(Cl)cc3)CC2)nc2ccccc12` [compound 28]: under setting [2], the class is recorded as 3 (Class 3 The value of percent of control at 10^−7 M was more than 60% or the value of IC50 was more than 200 nM.). Regarding `Cc1cc(N(C)C)nc(N[C@H]2CC[C@@H](C(=O)NCc3cc(Cl)ccc3Cl)CC2)n1` [compound 2808, cis-N-(2,5-dichlorobenzyl)-4-{[4-(dimethylamino)-6-methylpyrimidin-2-yl]amino}cyclohexanecarboxamide], the class under setting [1] was 1 (Class 1: The value of percent of control at 10^−7 M was less than 40% or the value of IC50 was less than 50 nM.). As for `Cc1ccc(OC(=O)N[C@H]2CC[C@@H](Nc3nc4c(c(N(C)C)n3)CCCC4)CC2)cc1` [compound 1594], the class under setting [4] was 3 (Class 3 The value of percent of control at 10^−7 M was more than 60% or the value of IC50 was more than 200 nM.).

As to `CCCCc1ccc(NC(=O)N[C@H]2CC[C@@H](Nc3nc4c(c(N(C)C)n3)CCCC4)CC2)c(C)c1` [compound 1735], the class under setting [3] was 3 (Class 3 The value of percent of control at 10^−7 M was more than 60% or the value of IC50 was more than 200 nM.). Turning to `COc1cccc([C@@H](C)NC(=O)[C@H]2CC[C@@H](Nc3nc(C)cc(N(C)C)n3)CC2)c1` [compound 2796, cis-4-{[4-(dimethylamino)-6-methylpyrimidin-2-yl]amino}-N-[(1R)-1-(3-methoxyphenyl)ethyl]cyclohexanecarboxamide], the class under setting [1] was 2 (Class 2: The value of percent of control at 10^−7 M was from 40% to 60% or the value of IC′50 was from 50 nM to 200 nM.). As to `COc1ccc(C(=O)N[C@H]2CC[C@@H](Nc3cc(N(C)C)c4ccccc4n3)CC2)cc1OC` [compound 104], under setting [2], the class is given as 3 (Class 3 The value of percent of control at 10^−7 M was more than 60% or the value of IC50 was more than 200 nM.). Same read-out and setting: with `CN(C)c1cc(N[C@H]2CC[C@@H](NC(=O)c3cccc(C(F)(F)F)c3F)CC2)nc2ccccc12` [compound 64] the figure was 3 (Class 3 The value of percent of control at 10^−7 M was more than 60% or the value of IC50 was more than 200 nM.). On to `Cc1ccccc1NC(=O)N[C@H]1CC[C@@H](Nc2nc3c(c(N(C)C)n2)CCCC3)CC1` [compound 1668], for which the class under setting [4] is on record as 3 (Class 3 The value of percent of control at 10^−7 M was more than 60% or the value of IC50 was more than 200 nM.). Regarding `CN(C)c1cc(N[C@H]2CC[C@@H](CNC(=O)C3CC(=O)c4ccccc43)CC2)nc2ccccc12` (relative stereo) [compound 798], under setting [3], the class is on record as 3 (Class 3 The value of percent of control at 10^−7 M was more than 60% or the value of IC50 was more than 200 nM.).

With `CN(C)c1cc(N[C@H]2CC[C@@H](CNC(=O)Nc3c(Cl)cccc3C(F)(F)F)CC2)nc2ccccc12` [compound 2373], under setting [5], the class is listed as 2 (Class 2: The value of percent of control at 10^−7 M was from 40% to 60% or the value of IC′50 was from 50 nM to 200 nM.).

Turning to `Cc1cnc(N[C@H]2CC[C@@H](NC(=O)c3cccc(Cl)c3)CC2)nc1N(C)C` [compound 2940, 3-chloro-N-(cis-4-{[4-(dimethylamino)-5-methylpyrimidin-2-yl]amino}cyclohexyl)benzamide], the class under setting [1] was 1 (Class 1: The value of percent of control at 10^−7 M was less than 40% or the value of IC50 was less than 50 nM.). For `COc1cc(NC(=S)N[C@H]2CC[C@@H](Nc3cc(N(C)C)c4ccccc4n3)CC2)cc(OC)c1OC` [compound 2175, N-(cis-4-{[4-(dimethylamino)quinolin-2-yl]amino}cyclohexyl)-N′-(3,4,5-trimethoxyphenyl)thiourea], the class under setting [3] was 1 (Class 1: The value of percent of control at 10^−7 M was less than 40% or the value of IC50 was less than 50 nM.). Consider `CC(C(=O)N[C@H]1CC[C@@H](Nc2nccc(N(C)C)n2)CC1)c1ccc(C(=O)c2cccs2)cc1` (relative stereo) [compound 884, N-(cis-4-{[4-(dimethylamino)pyrimidin-2-yl]amino}cyclohexyl)-2-[4-(2-thienylcarbonyl)phenyl]propanamide], for which the class under setting [3] is 2 (Class 2: The value of percent of control at 10^−7 M was from 40% to 60% or the value of IC′50 was from 50 nM to 200 nM.).
